Source: paper PMC8959600 (eLife, 2022)
Values after ≈ are worked out from the molar mass of the structure shown.

What was measured:
S. flexneri 2457T [1] = experiment: microbe, parasite or virus in culture; format: cell-based, Shigella flexneri; conditions: Shigella flexneri, 2457T
Experimental: Bacterial inoculum without drug was used as positive control. The bacteria inoculum (1 × 10^5 CFU/mL) for the assay was prepared by diluting a log phase incubated at 37 °C for 3–4 hr. Mueller Hinton agar plates were prepared containing 4xMIC and 10xMIC and inoculated with different concentrations of bacteria (1 × 10^9, 1 × 10^8, and 1 × 10^7 CFU/mL). Plates were prepared in duplicate and incubated overnight at 37 °C. The frequency of spontaneous resistant mutants was calculated by using the formula: FoR = resistant CFUs/inoculum CFUs. The mean of the two plates was reported.

Shigella flexneri 2457T = experiment: Resazurin growth inhibition, dose response (IC50/IC90) in Müller Hinton medium; format: cell-based; conditions: ATCC700930
Experimental: We developed a high-throughput screening (HTS) method to identify compounds that could inhibit the growth of Shigella flexneri 2457T in Müller Hinton medium (Sigma Aldrich, UK). We adapted a resazurin reduction protocol from Franzblau et al. as surrogate readout for bacterial viability because it provided a stable signal, a low interference level, and was cost effective ([Franzblau et al., 1998]). Prior to the day of experimentation, one colony was used to inoculate 50 mL Mueller Hinton medium, and the culture was incubated overnight at 37 °C. The next day, 500 μL of the bacterial culture were inoculated into 50 mL fresh Mueller Hinton medium and bacterial growth was measured periodically at 600 nm. When the culture reached OD = 0.4–0.6, the inoculum was diluted to 1 × 10^6 CFU/mL; this bacterial suspension was added to compound pre-dispensed plates for screening.
The assay was performed in 1536-well polystyrene assay plates (HiBase, μClear, Greiner Bio‐One) and used to screen ~1.7 million compounds from (a) GSK naïve chemical diversity, (b) GSK antibacterial programs, and (c) marketed antimicrobial agents. All commercially available chemicals were purchased from either Sigma Aldrich, UK, AK Scientific, or Fischer Chemicals. The GSK compound screening set was sub-selected from the 8 million compound GSK collection using the principles described by Harper and co-workers ([Harper et al., 2004]). The process to generate the structural filters to remove compounds bearing undesirable/reactive chemotypes and/or non-developable physicochemical properties has been described previously by [Chakravorty et al., 2018]. […]. The set of marketed antibacterial agents included most commercial antimicrobial agents.
For screening, plates were prepared by dispensing 50 nl of compound from master plates at 1 mM in each well using a LabCyte Echo system. The final assay volume was 5 μl and the final compound concentration was 10 µM. The 11th and 12th columns were growth controls containing 50 nL of DMSO. The 34th and 35th columns contained 50 nL of Moxifloxacin at 20 μM as negative growth controls. Five µl of bacterial inoculum was dispensed into compound pre-dispensed plates using a Multidrop Combi dispenser (Thermo Scientific). Plates were agitated for 10 s to ensure mixing and incubated at 37 °C overnight (16–17 hr). Following overnight culture, 2 µl resazurin solution (Resazurin tablets for milk testing, BDH) was added to each well and incubated at room temperature in the dark for 3 hr. Fluorescence intensity was measured using an Envision plate reader (PerkinElmer). […] Data were analysed using Base software and statistical cut-off analysis was used for ‘hit’ selection following a standard GSK protocol. To calculate the statistical cut-off, percentage growth inhibition was calculated per well according to the plate controls, these values were aggregated to calculate the robust mean and standard deviation (SD) of the distribution. The robust mean was calculated starting from the median and the MAD of the distribution with an iterative process that aimed to remove outliers. Once the mean and SD were calculated, all compounds above mean + 3 SD were selected as primary hits.
After the initial screen, we generated fresh samples of the primary compound hits and tested them in duplicate against S. flexneri 2457T at 10 μM to confirm activity. The confirmed hit list was narrowed by applying the following filters: a 30% cut-off value, absence of undesirable structural features (e.g. electrophiles, peroxides, and Michael acceptors) and reduced physicochemical risk (maximum five aromatic rings and PFI <8)([Leeson and Young, 2015]). […].

S. flexneri 2457T [2] = format: in vivo; conditions: mice, 40 mg/kg PO, 24 hr post infection, limit of quantification 80
S. sonnei 02–1181 = experiment: Solid medium test at 10 µM and dose-response MIC against MDR clinical isolate; format: cell-based, Shigella sonnei
Experimental: (§1) The confirmed hit list was narrowed by applying the following filters: a 30% cut-off value, absence of undesirable structural features (e.g. electrophiles, peroxides, and Michael acceptors) and reduced physicochemical risk (maximum five aromatic rings and PFI <8)([Leeson and Young, 2015]). […] Briefly, the selected bacteria were cultured on the Luria-Bertani agar overnight at 37 °C (Campylobacter isolates were grown in 2.5% Laked Horse Blood cation-adjusted Mueller Hinton medium (CAMHB, Sigma Aldrich) and incubated in microaerophilic conditions (10% CO2, 5% O2 and 85% N2) at 42 °C); colonies were added to sterile PBS to form 0.5 McFarland solutions. All chemical testing was performed at an initial concentration of 10 μM. Bacterial suspensions were evenly spread on Mueller-Hinton agar by sterile cotton swabs (Medical Wire – MWE). […] Plates were incubated overnight at 37 °C. The activity of the chemical was recorded as being active (yes) or non-active (no) for each of the tested chemicals.
(§2) MICs were evaluated using the micro dilution assay in Müller Hinton broth using 1 mM chemical stock solutions, and a final concentration of 5 × 10^5 CFU/mL bacteria. Twofold serial dilutions were prepared in 96-well plates at concentration ranging from 1 μM to 7.8 nM. 100 μL bacteria were added and incubated at 37 °C overnight; 10 μl of each solution was dropped onto Luria-Bertani agar and incubated overnight at 37 °C for the detection of bacterial growth. Results were interpreted as minimal concentration necessary to inhibit growth.

S. flexneri EG478 = experiment: as above; format: cell-based, Shigella flexneri; conditions: for bactericidal activity: MDR clinical isolate S. flexneri EG478; for MIC range: range over S. flexneri EG478 and S. sonnei 02-1181
Experimental: as §1, §2

S. flexneri 2457T [3] = experiment: Gnotobiotic piglet Shigella infection model, efficacy; format: in vivo; conditions: piglets
[4] = Intestinal distribution by MALDI imaging in mice; format: in vivo
Experimental: One animal was euthanised at 0.25, 0.5, 1, and 4 hr respectively and 2.5–3 cm sections of the intestine (duodenum, jejunum, ileum, caecum, and colon) were collected and frozen at –80 °C. For quantitative LCMS analysis of intestine homogenate, samples were thawed at ambient temperature, mixed with water (1:1) and homogenised by turrax (10 sec). Subsequently, 20 µL of homogenate were mixed with 200 µl of ACN: MeOH (80:20) and filtered using 0.2 µm filter plate (Whatman). LCMS analysis was performed as described in previous section. For MALDI imaging, 50 mm of the central part of each intestinal section were cut and mounted in a sample disc on dry ice with a solution of 1% methylcellulose (Sigma Aldrich, UK). Next, tissue sections of 12 µm (sagital sections) were obtained using a cryostat (Leica CM3600; Leica Microsystems Inc, Wetzlar, Germany) at –20 °C and collected in conductive-coated slides for MALDI Imaging (Bruker Daltonic). After the ‘MALDI’ section was obtained a consecutive section for histology was taken. Prior to matrix coating, samples for MALDI were optical scanned in a PathScanner. The matrix deposition was conducted in a sprayer ImagePrep System (Bruker Daltonic) which uses vibrational vaporisation technology. As matrix solution α-CHCA (α-Cyano-4-hydroxycinnamic acid (Sigma Aldrich) dissolved in 70:30 methanol/water (v/v) containing 0.2% TFA at 7 mg/mL was used. MALDI MSI data were obtained using a Bruker UltrafleXtream MALDI TOF/TOF (Bruker Daltonic, Germany)).
Both compounds were analysed in positive mode using a LIFT method. For Tebipenem, parent compound was 384.32 and the detection mass window between m/z 0–400. 298.164 were the most intensive fragment. […] We used a laser shut at 85% power with a 50 μm step size, 100 times at raster spot in random wak mode. FlexImaging 4.1(bruker Daltoninc, Germany) were used for the data visualisation. […]
MALDI Imaging is not a quantitative technique, therefore, the colour scale of images is relative to the maximum intensity (100 corresponds with the maximal signa in each slide). […]

Question: For `CC1(C)S[C@@H]2[C@H](NC(=O)[C@H](N)c3ccccc3)C(=O)N2[C@H]1C(=O)O` [Ampicilin], which MIC (S. flexneri 2457T [1]) is on record?
Answer: 7.5 µM (≈ 2.62 µg/mL)

Question: With `CC[C@H]1OC(=O)[C@H](C)[C@@H](O[C@H]2C[C@@](C)(OC)[C@@H](O)[C@H](C)O2)[C@H](C)[C@@H](O[C@@H]2O[C@H](C)C[C@H](N(C)C)[C@H]2O)[C@](C)(O)C[C@@H](C)CN(C)[C@H](C)[C@@H](O)[C@]1(C)O` [Azithromycin] as the compound, how does the IC90 (Shigella flexneri 2457T) read?
Answer: 7.49 µg/mL (≈ 10 µM)

Question: Which results are given for `CO/N=C(\C(=O)N[C@@H]1C(=O)N2C(C(=O)O)=C(CSc3nc(=O)c(=O)[nH]n3C)CS[C@H]12)c1csc(N)n1` [Ceftriaxone]?
Answer: IC90 (Shigella flexneri 2457T): 0.067 µg/mL (≈ 0.121 µM); MIC (S. flexneri 2457T [1]): 0.2 µM (≈ 0.111 µg/mL)

Question: What does the source list for `O=C(O)c1cn(C2CC2)c2cc(N3CCNCC3)c(F)cc2c1=O` [Ciprofloxacin]?
Answer: IC90 (Shigella flexneri 2457T): 0.02 µg/mL (≈ 0.0604 µM); MIC (S. flexneri 2457T [1]): 0.06 µM (≈ 0.0199 µg/mL); S. flexneri CFUs in gastrointestinal tissue (S. flexneri 2457T [2]): < 80 CFU

Question: With `C[C@@H](O)[C@H]1C(=O)N2C(C(=O)O)=C(S[C@@H]3CN[C@H](C(=O)Nc4cccc(C(=O)O)c4)C3)[C@H](C)[C@H]12` [Ertapenem] as the compound, how does the bactericidal activity (S. sonnei 02–1181) read?
Answer: greatest bactericidal activity

Question: What about the bactericidal activity (S. flexneri EG478) of the same compound?
Answer: greatest bactericidal activity

Question: And the MIC range (S. flexneri EG478)?
Answer: 0.04 to 0.15 µg/mL

Question: For `C[C@@H](O)[C@H]1C(=O)N2C(C(=O)O)=C([C@H]3CCCO3)S[C@H]12` [Faropenem], which MIC range (S. flexneri EG478) is on record?
Answer: 2.5 to 6.25 µg/mL

Question: With `CC1(C)S[C@@H]2[C@H](/N=C/N3CCCCCC3)C(=O)N2[C@H]1C(=O)O` [Mecillinam] as the compound, how does the IC90 (Shigella flexneri 2457T) read?
Answer: 0.058 µg/mL (≈ 0.178 µM)

Question: And the MIC (S. flexneri 2457T [1])?
Answer: 0.2 µM (≈ 0.0651 µg/mL)

Question: With `C[C@@H](O)[C@H]1C(=O)N2C(C(=O)O)=C(S[C@@H]3CN[C@H](C(=O)N(C)C)C3)[C@H](C)[C@H]12` [Meropenem] as the compound, how does the bactericidal activity (S. sonnei 02–1181) read?
Answer: greatest bactericidal activity

Question: What about the bactericidal activity (S. flexneri EG478) of the same compound?
Answer: greatest bactericidal activity

Question: What about the MIC range (S. flexneri EG478) of the same compound?
Answer: 0.15 µg/mL (≈ 0.391 µM)

Question: With `COc1c(N2C[C@@H]3CCCN[C@@H]3C2)c(F)cc2c(=O)c(C(=O)O)cn(C3CC3)c12` [Moxifloxacin] as the compound, how does the MIC (S. flexneri 2457T [1]) read?
Answer: 0.2 µM (≈ 0.0803 µg/mL)

Question: For `CO[C@H]1/C=C/O[C@@]2(C)Oc3c(C)c(O)c4c(O)c(c(/C=N/N5CCN(C)CC5)c(O)c4c3C2=O)NC(=O)/C(C)=C\C=C\[C@H](C)[C@H](O)[C@@H](C)[C@@H](O)[C@@H](C)[C@H](OC(C)=O)[C@@H]1C` [Rifampicin], which MIC (S. flexneri 2457T [1]) is on record?
Answer: 3.7 µM (≈ 3.04 µg/mL)

Question: For `C[C@@H](O)[C@H]1C(=O)N2C(C(=O)OCOC(=O)C(C)(C)C)=C(SC3CN(C4=NCCS4)C3)[C@H](C)[C@H]12` [Tebipenem pivoxil], which “histopathology of the large intestine vs placebo” value (S. flexneri 2457T [3]; day six post infection) is on record?
Answer: marked reduction in intestinal lesions and inflammation

Question: And the “CFU/g Shigella in stool” value (S. flexneri 2457T [3]; single dose given 24 hr after infection, from 1 × 10^7, within 24 hr)?
Answer: zero

Question: What about the “MALDI detection in the intestinal lumen” value ([4]; 60 min after oral pro-drug) of the same compound?
Answer: not detectable in the lumen

Question: What about the “MALDI detection within enterocytes” value ([4]; after oral pro-drug) of the same compound?
Answer: not detected within enterocytes
